Data on four molecules can be found in PMC6309603 (Molecular diversity, 2018).

Test [1] has as its target T1, AChE (Homo sapiens, UniProt P22303). Briefly: biochemical. Particulars: for Selectivity for AChE: IC50 (BChE)/IC50 (AChE).
The target of another test is BChE (Homo sapiens, UniProt P06276). Nature of the test: biochemical.
Test [2] deals with T1, AChE. Nature of the test: Kinetic study of AChE inhibition. It counts as biochemical.

The IC50 is the concentration that inhibits the measured activity by half. As a reminder, the Ki is a measure of affinity in units of concentration, obtained from inhibition or displacement. High values mean lower affinity, low ones higher affinity.

Chain of BChE (P06276 29-602): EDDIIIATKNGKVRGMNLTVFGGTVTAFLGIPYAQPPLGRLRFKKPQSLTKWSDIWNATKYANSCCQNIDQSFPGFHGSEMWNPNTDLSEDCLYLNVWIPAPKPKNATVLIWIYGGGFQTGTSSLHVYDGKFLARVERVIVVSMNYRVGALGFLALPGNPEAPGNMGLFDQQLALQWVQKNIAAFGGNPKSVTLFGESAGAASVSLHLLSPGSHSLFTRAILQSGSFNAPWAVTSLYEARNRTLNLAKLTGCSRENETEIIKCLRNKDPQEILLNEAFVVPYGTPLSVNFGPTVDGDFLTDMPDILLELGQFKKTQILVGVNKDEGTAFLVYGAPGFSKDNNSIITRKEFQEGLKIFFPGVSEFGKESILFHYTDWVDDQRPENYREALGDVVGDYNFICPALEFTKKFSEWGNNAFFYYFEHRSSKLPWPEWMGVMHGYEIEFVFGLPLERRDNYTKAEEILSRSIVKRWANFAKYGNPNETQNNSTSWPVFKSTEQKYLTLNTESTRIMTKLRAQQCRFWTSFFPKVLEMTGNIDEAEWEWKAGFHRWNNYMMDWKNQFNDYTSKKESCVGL
T1 sequence (P22303 32-614): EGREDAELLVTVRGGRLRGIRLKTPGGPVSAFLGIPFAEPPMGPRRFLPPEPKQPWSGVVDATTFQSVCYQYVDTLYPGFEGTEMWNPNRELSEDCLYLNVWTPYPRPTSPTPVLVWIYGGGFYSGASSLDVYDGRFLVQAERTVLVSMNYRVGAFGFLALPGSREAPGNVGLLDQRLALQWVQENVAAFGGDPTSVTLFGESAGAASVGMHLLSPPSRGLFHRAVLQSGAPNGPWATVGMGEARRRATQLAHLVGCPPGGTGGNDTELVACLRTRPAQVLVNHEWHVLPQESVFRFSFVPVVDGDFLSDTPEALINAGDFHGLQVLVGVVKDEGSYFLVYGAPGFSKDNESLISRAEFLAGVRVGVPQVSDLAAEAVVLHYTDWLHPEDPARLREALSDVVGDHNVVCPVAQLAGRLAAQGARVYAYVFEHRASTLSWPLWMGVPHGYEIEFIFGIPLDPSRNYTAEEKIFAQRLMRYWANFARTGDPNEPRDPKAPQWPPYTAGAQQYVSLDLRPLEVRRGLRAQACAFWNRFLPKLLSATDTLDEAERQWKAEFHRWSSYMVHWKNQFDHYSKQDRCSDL

Consider `O=C(/C=C/c1ccc(OCCN2CCCC2)cc1)c1cc2ccccc2oc1=O` [Compound 5e, (E)-3-(3-(4-(2-(pyrrolidin-1-yl)ethoxy)phenyl)acryloyl)-2H-chromen-2-one], for which, on AChE [1], the 50% inhibitory concentration (IC50) was determined as 0.15 ± 0.01 µM, the “inhibitory activity against AChE (in words)” value is “potent inhibitory activity”, the “selectivity over BChE (in words)” value is “high selectivity” and the “Selectivity for AChE” value stood at 27.40. Besides, half-maximal inhibition against BChE (IC50) was put at 4.11 ± 0.16 µM. This molecule also returned an inhibition constant (Ki) on AChE [2] of 0.11 µM. For the same molecule, at AChE [2] (AChE, substrate acetylthiocholine iodide, pH 7.4, 30 °C), the “non-competitive constant (Ki′)” value is 0.19 µM. Further, the “inhibition mechanism against AChE” value against AChE [2] (Lineweaver-Burk analysis) is recorded as “mixed-type inhibition”.
Regarding `O=C(/C=C/c1cccc(OCC(=O)N2CCCCC2)c1)c1cc2ccccc2oc1=O` [Compound 10f, (E)-3-(3-(3-(2-oxo-2-(piperidin-1-yl)ethoxy)phenyl)acryloyl)-2H-chromen-2-one], at AChE [1], inhibition was half-maximal at 152 ± 12.8 µM (IC50) and the “Selectivity for AChE” value is 1.46. The concentration for half-maximal inhibition (IC50) on BChE came to 223 ± 11.5 µM.
On to `O=C(/C=C/c1ccccc1OCCN1CCOCC1)c1cc2ccccc2oc1=O` [Compound 7h, (E)-3-(3-(2-(2-morpholinoethoxy)phenyl)acryloyl)-2H-chromen-2-one], for which, on AChE [1], the concentration for half-maximal inhibition (IC50) is 261 ± 4.17 µM and the “Selectivity for AChE” value is given as 0.11. This molecule showed an IC50 against BChE of 29 ± 1.23 µM.
For `COc1cc(/C=C/C(=O)c2cc3ccccc3oc2=O)ccc1OCCN1CCCC1` [Compound 12l, (E)-3-(3-(3-methoxy-4-(2-(pyrrolidin-1-yl)ethoxy)phenyl)acryloyl)-2H-chromen-2-one], at AChE [1], the IC50 stood at 1.67 ± 0.04 µM and the “Selectivity for AChE” value was determined as 0.28. Moreover, half-maximal inhibition at BChE (IC50) was put at 0.46 ± 0.01 µM.
